Measurements published in ChEMBL document CHEMBL4507273 (2021).

Experiments:
[1] = target: 5-hydroxytryptamine receptor 1B (Homo sapiens, UniProt P28222); assay: GPCRScan assay: inhibition of 5-HT1B; set-up: radioligand conc. used [nm] 0.6 – 1.5, parental cells stable HEK
[2] = target: 5-hydroxytryptamine receptor 2B (Homo sapiens, UniProt P41595); assay: GPCRScan assay: inhibition of 5-HT2B; set-up: radioligand conc. used [nm] 1.0 – 2.0, parental cells stable HEK
D(2) dopamine receptor [3] = target: T1, D(2) dopamine receptor (Homo sapiens, UniProt P14416); assay: GPCRScan assay: inhibition of D2; set-up: radioligand conc. used [nm] 0.4 – 1.0, parental cells stable fibroblast
[4] = target: Sodium-dependent serotonin transporter (Homo sapiens, UniProt P31645); assay: GPCRScan assay: inhibition of SERT; set-up: radioligand conc. used [nm] 1.5 – 2.0, parental cells stable HEK
[5] = target: Muscarinic acetylcholine receptor M4 (Homo sapiens, UniProt P08173); assay: GPCRScan assay: inhibition of M4; set-up: radioligand conc. used [nm] 0.3 – 1.0, parental cells stable CHO
[6] = target: Epidermal growth factor receptor (Homo sapiens, UniProt P00533); assay: EGFR kinase inhibition assay
[7] = test system: Tyrosine-protein kinase ABL1 (Homo sapiens), P00519 [H396P]; conditions: Compound concentration 1000.0 nM
[8] = target: Calcium/calmodulin-dependent protein kinase type 1G (Homo sapiens) (UniProt Q96NX5); conditions: Compound concentration 1000.0 nM
[9] = target: Tyrosine-protein kinase CSK (Homo sapiens) (UniProt P41240); conditions: Compound concentration 1000.0 nM
[10] = test system: Epidermal growth factor receptor (Homo sapiens), P00533 [T790M]; conditions: Compound concentration 1000.0 nM
[11] = target: Ephrin type-A receptor 4 (Homo sapiens) (UniProt P54764); conditions: Compound concentration 1000.0 nM
[12] = test system: Receptor-type tyrosine-protein kinase FLT3 (Homo sapiens), P36888 [D835V]; conditions: Compound concentration 1000.0 nM
[13] = test system: Receptor-type tyrosine-protein kinase FLT3 (Homo sapiens), P36888 [D835Y]; conditions: Compound concentration 1000.0 nM
[14] = target: Receptor-type tyrosine-protein kinase FLT3 (Homo sapiens) (UniProt P36888); conditions: Compound concentration 1000.0 nM
[15] = target: Tyrosine-protein kinase HCK (Homo sapiens) (UniProt P08631); conditions: Compound concentration 1000.0 nM
[16] = target: Homeodomain-interacting protein kinase 1 (Homo sapiens) (UniProt Q86Z02); conditions: Compound concentration 1000.0 nM
[17] = target: Tyrosine-protein kinase JAK2 (Homo sapiens) (UniProt O60674); conditions: Compound concentration 1000.0 nM
[18] = target: Mast/stem cell growth factor receptor Kit (Homo sapiens) (UniProt P10721); conditions: Compound concentration 1000.0 nM
[19] = target: Hepatocyte growth factor receptor (Homo sapiens) (UniProt P08581); conditions: Compound concentration 1000.0 nM
[20] = target: Dual specificity mitogen-activated protein kinase kinase 7 (Homo sapiens) (UniProt O14733); conditions: Compound concentration 1000.0 nM
[21] = target: Serine/threonine-protein kinase 4 (Homo sapiens) (UniProt Q13043); conditions: Compound concentration 1000.0 nM
[22] = target: Phosphorylase b kinase gamma catalytic chain, skeletal muscle/heart isoform (Homo sapiens) (UniProt Q16816); conditions: Compound concentration 1000.0 nM
[23] = target: Protein kinase C theta type (Homo sapiens) (UniProt Q04759); conditions: Compound concentration 1000.0 nM
[24] = target: cGMP-dependent protein kinase 1 (Homo sapiens) (UniProt Q13976); conditions: Compound concentration 1000.0 nM
[25] = target: cGMP-dependent protein kinase 2 (Homo sapiens) (UniProt Q13237); conditions: Compound concentration 1000.0 nM
[26] = target: Receptor-interacting serine/threonine-protein kinase 2 (Homo sapiens) (UniProt O43353); conditions: Compound concentration 1000.0 nM
[27] = target: Tyrosine-protein kinase SYK (Homo sapiens) (UniProt P43405); conditions: Compound concentration 1000.0 nM
[28] = target: Tyrosine-protein kinase Tec (Homo sapiens) (UniProt P42680); conditions: Compound concentration 1000.0 nM
[29] = target: Serine/threonine-protein kinase ULK3 (Homo sapiens) (UniProt Q6PHR2); conditions: Compound concentration 1000.0 nM
[30] = target: Sigma intracellular receptor 2 (Homo sapiens, UniProt Q5BJF2); conditions: Compound concentration 10.0 uM
[31] = target: [Pyruvate dehydrogenase (acetyl-transferring)] kinase isozyme 2, mitochondrial (Homo sapiens) (UniProt Q15119); assay: PDHK2(h) Eurofins Kinase panel; conditions: Compound concentration 1.0 uM
[32] = target: Eukaryotic translation initiation factor 2-alpha kinase 3 (Homo sapiens) (UniProt Q9NZJ5); assay: PEK(h) Eurofins Kinase panel; conditions: Compound concentration 1.0 uM
[33] = target: Tau-tubulin kinase 1 (Homo sapiens) (UniProt Q5TCY1); assay: TTBK1(h) Eurofins Kinase panel; conditions: Compound concentration 1.0 uM
[34] = target: Tyrosine-protein kinase receptor UFO (Homo sapiens) (UniProt P30530); assay: Axl(h) Eurofins Kinase panel; conditions: Compound concentration 1.0 uM
[35] = target: T2, Alpha-2A adrenergic receptor (Homo sapiens) (UniProt P08913); conditions: Compound concentration 10.0 uM
T2 sequence (whole entry): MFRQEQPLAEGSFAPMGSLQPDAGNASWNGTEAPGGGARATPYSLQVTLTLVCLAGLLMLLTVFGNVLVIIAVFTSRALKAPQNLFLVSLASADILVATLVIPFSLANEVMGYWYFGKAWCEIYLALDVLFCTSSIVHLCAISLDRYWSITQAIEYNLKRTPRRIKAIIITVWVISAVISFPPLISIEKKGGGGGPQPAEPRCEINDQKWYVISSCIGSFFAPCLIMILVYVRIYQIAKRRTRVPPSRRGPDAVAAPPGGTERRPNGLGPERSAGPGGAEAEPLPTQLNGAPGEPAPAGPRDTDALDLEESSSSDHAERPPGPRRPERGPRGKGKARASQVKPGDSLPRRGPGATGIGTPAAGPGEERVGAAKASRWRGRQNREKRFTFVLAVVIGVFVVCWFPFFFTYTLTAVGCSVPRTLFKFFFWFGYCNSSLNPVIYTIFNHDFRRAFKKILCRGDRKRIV

D(1A) dopamine receptor = D(1A) dopamine receptor (Homo sapiens, UniProt P21728); conditions: Compound concentration 10.0 uM
D(2) dopamine receptor [36] = target: T1, D(2) dopamine receptor; conditions: Compound concentration 10.0 uM
D(3) dopamine receptor = D(3) dopamine receptor (Homo sapiens, UniProt P35462); conditions: Compound concentration 10.0 uM
[37] = target: Sodium-dependent dopamine transporter (Homo sapiens, UniProt Q01959); conditions: Compound concentration 10.0 uM
[38] = target: Sodium-dependent noradrenaline transporter (Homo sapiens, UniProt P23975); conditions: Compound concentration 10.0 uM

Chain of 5-hydroxytryptamine receptor 1B (P28222 whole entry): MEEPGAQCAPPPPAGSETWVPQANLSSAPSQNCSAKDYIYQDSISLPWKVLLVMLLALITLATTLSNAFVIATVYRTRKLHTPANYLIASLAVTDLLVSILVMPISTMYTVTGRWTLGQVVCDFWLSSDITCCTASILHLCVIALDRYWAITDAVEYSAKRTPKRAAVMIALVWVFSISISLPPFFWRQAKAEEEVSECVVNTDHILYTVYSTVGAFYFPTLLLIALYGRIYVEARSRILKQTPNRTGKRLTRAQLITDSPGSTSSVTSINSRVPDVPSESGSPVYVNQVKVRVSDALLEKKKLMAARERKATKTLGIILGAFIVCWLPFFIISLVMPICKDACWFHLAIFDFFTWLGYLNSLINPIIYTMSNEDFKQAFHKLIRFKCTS
T1 sequence (P14416 whole entry): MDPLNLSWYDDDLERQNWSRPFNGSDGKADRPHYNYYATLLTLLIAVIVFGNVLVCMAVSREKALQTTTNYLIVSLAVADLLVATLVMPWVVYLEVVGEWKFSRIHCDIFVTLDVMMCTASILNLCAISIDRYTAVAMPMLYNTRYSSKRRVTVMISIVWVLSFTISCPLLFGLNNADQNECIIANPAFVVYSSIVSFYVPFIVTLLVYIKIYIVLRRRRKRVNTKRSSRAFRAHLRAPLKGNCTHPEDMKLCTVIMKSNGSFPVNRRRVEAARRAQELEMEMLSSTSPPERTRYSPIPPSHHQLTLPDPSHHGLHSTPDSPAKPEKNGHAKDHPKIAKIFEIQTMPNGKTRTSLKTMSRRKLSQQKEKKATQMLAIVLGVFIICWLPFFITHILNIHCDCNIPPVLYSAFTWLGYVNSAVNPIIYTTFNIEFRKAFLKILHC
Chain of Hepatocyte growth factor receptor (Homo sapiens) (P08581 whole entry): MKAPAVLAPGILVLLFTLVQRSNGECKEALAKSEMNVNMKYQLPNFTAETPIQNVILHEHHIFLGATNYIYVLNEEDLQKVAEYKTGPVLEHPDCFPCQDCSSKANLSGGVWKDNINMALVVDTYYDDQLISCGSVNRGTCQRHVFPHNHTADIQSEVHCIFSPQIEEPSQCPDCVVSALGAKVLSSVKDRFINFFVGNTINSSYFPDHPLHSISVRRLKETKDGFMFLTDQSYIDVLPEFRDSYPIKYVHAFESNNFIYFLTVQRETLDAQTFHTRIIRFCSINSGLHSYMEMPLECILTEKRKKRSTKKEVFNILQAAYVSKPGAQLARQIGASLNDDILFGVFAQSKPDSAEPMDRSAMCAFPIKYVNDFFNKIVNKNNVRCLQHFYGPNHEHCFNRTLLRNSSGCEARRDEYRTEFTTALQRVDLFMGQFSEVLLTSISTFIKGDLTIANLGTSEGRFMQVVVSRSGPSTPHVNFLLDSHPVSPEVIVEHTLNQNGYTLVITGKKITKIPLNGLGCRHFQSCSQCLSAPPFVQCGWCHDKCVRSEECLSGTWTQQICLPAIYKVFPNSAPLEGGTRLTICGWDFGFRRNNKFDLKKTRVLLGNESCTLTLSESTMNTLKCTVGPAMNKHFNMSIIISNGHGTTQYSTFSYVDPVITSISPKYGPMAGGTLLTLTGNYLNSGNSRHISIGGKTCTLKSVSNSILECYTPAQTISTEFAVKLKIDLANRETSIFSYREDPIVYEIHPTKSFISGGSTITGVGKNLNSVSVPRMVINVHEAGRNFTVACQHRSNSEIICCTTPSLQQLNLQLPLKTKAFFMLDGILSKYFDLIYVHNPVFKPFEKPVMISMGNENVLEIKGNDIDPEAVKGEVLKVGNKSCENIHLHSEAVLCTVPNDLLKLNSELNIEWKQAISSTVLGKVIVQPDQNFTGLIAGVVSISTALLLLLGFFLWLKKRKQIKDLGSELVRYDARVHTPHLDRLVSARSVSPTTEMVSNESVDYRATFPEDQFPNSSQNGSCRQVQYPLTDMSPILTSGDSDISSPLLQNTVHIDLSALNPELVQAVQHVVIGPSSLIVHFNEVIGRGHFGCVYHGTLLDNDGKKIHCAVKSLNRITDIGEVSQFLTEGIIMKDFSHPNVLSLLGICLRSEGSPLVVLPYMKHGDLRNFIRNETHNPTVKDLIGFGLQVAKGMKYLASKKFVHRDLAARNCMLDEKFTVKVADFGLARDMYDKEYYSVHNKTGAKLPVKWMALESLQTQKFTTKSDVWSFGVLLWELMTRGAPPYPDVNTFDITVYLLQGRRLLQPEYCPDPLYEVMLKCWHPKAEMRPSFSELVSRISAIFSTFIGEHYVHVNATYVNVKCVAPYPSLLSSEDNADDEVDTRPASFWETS
Chain of Receptor-interacting serine/threonine-protein kinase 2 (Homo sapiens) (O43353 whole entry): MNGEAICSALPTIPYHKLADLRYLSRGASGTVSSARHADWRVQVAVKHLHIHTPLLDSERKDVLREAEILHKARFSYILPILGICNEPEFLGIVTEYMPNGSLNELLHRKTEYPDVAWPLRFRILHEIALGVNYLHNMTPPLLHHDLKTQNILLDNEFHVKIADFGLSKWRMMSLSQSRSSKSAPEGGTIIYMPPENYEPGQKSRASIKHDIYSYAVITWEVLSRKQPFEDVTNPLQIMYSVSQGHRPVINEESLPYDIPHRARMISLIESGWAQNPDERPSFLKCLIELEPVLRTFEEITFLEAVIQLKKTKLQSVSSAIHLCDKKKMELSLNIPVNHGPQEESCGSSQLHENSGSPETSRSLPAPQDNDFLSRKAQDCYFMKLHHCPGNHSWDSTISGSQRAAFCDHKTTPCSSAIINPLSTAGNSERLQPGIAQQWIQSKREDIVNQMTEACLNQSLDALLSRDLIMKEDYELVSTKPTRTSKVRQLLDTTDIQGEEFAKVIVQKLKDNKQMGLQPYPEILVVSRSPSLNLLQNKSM
Chain of 5-hydroxytryptamine receptor 2B (P41595 whole entry): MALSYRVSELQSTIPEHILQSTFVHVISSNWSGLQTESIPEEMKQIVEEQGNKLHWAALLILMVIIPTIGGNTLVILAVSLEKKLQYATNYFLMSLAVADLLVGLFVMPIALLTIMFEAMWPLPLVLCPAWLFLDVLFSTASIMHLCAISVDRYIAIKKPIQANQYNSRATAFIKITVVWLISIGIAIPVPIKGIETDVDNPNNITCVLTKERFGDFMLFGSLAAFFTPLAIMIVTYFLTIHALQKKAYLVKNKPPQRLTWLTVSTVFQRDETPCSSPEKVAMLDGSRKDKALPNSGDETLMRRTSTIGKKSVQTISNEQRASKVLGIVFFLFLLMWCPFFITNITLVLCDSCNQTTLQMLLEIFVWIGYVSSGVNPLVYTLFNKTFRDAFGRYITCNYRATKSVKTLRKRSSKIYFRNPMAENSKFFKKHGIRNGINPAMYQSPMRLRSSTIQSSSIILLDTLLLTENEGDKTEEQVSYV
Chain of Homeodomain-interacting protein kinase 1 (Homo sapiens) (Q86Z02 whole entry, looked up): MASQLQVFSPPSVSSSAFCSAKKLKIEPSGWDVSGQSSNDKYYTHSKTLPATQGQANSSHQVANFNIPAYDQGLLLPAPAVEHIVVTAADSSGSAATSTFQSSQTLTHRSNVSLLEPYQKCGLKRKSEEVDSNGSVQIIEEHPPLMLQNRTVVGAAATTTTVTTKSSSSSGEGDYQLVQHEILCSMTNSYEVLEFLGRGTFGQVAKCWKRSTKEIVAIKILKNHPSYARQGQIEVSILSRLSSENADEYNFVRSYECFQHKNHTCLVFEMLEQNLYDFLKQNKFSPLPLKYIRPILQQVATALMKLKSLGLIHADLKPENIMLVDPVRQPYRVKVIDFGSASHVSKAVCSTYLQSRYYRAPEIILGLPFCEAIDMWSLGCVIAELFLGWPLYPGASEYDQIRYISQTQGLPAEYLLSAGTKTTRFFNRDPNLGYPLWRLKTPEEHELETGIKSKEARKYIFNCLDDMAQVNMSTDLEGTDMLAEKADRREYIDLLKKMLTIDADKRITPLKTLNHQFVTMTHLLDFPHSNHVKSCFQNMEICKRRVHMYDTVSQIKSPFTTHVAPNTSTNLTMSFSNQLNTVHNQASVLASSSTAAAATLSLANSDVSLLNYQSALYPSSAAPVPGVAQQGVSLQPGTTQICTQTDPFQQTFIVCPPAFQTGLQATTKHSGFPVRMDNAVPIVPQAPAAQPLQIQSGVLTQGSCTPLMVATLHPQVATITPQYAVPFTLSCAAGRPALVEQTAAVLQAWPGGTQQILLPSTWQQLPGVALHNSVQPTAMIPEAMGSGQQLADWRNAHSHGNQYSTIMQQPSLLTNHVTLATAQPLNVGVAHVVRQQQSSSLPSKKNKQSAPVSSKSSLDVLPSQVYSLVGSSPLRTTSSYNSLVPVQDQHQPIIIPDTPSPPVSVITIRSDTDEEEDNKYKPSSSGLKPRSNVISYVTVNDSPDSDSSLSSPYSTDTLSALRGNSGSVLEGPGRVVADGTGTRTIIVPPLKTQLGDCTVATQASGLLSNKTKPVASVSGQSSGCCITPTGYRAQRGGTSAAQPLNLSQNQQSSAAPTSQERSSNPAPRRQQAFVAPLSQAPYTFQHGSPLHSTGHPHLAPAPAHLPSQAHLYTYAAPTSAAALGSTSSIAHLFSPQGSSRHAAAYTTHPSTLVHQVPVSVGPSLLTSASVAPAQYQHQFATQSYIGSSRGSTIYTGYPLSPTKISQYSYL
Chain of Calcium/calmodulin-dependent protein kinase type 1G (Homo sapiens) (Q96NX5 whole entry): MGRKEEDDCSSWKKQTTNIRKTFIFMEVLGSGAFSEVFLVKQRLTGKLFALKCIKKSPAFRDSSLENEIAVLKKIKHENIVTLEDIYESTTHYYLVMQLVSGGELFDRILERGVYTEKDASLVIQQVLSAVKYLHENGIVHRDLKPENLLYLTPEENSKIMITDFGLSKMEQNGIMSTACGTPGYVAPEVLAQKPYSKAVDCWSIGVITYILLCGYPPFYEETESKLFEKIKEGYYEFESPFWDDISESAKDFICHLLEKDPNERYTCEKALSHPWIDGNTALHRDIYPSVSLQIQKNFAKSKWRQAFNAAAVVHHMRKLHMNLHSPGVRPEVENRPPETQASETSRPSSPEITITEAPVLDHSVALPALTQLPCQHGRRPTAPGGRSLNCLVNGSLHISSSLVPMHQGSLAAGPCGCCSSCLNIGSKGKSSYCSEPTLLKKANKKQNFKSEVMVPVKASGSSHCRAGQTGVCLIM

Compound | Ki ([1]; read-out: Ki) [nM] | Ki [2] [nM] | IC50 [6] | residual activity [7] [%] | residual activity [8] [%] | residual activity [9] [%] | residual activity [10] [%] | residual activity [11] [%] | residual activity [12] [%] | residual activity [13] [%] | residual activity [14] [%] | residual activity [15] [%] | residual activity [16] [%] | residual activity [17] [%] | residual activity [18] [%] | residual activity [19] [%] | residual activity [20] [%] | residual activity [21] [%] | residual activity [22] [%] | residual activity [23] [%] | also measured
CNCc1ccccc1-c1csc([C@H](C)Nc2nc(C)nc3cc(OC)c(OC)cc23)c1 [BAY-294] | 1760 | 74.6 | > 20000 nM (not active) | 89 | 96 | 100 | 76 | 100 | 88 | 100 | 93 | 98 | 79 | 63 | 70 | 100 | 81 | 100 | 87 | 100 | Ki (D(2) dopamine receptor [3]; read-out: Ki): 2330 nM; Ki (D(2) dopamine receptor [3]; read-out: pKi (converted)): 2000 nM; Ki [4]: 4230 nM; Ki ([5]; read-out: Ki): 303 nM; Ki ([5]; read-out: pKi (converted)): 292 nM; residual activity [24]: 100%; residual activity [25]: 93%; residual activity [26]: 100%; residual activity [27]: 100%; residual activity [28]: 100%; residual activity [29]: 88%; inhibition [30]: 83.2%
CNCc1ccccc1-c1csc([C@@H](C)Nc2nc(C)nc3cc(OC)c(OC)cc23)c1 [BAY-293] | 1410 | 623 | > 20000 nM (not active) | 78 | 93 | 100 | 68 | 79 | 70 | 84 | 88 | 97 | 78 | 67 | 81 | 95 | 79 | 100 | 83 | 100 | Ki ([1]; read-out: pKi (converted)): 1350 nM; % residual kinase activity [31]: 85%; % residual kinase activity [32]: 87%; % residual kinase activity [33]: 87%; % residual kinase activity [34]: 88%; residual activity [24]: 100%; residual activity [25]: 85%; residual activity [26]: 100%; residual activity [27]: 100%; residual activity [28]: 100%; residual activity [29]: 78%; inhibition [30]: 94.8%; inhibition [35]: 99%; inhibition (D(1A) dopamine receptor): 85%; inhibition (D(2) dopamine receptor [36]): 71%; inhibition (D(3) dopamine receptor): 88%; inhibition [37]: 90%; inhibition [38]: 86%
